The source of these data is patent publication US10603279B2, “Compositions of lopinavir” (The University of Liverpool, priority 2011, dated 2020).

A short description of series [1]: ATP cell viability assay (CellTiter-Glo) cytotoxicity. The series is classed as cell-based. The conditions noted are these: human, 70% lopinavir loaded, 24 hours incubation. The source says:
(§1) HepG2 (hepatic) and Caco-2 (intestinal) cells were purchased from American Type Tissue Culture (ATCC; USA) and maintained in Dulbecco's modified eagle's medium (DMEM; Sigma; Dorest, Uk) supplemented with 10% fetal bovine serum (FBS; Bio-Whittaker, Berkshire, Uk) for HepG2 and 15% FBS for Caco-2. CEM (lymphocyte) and THP-1 (monocyte) cells were purchased from European Collection of Cell Culture (ECACC; Porton Down, Uk) and grown in RPMI-1640 (Sigma; Dorest, Uk) supplemented with 10% FBS. All cell lines were incubated at 37° C. and 5% CO2 and for adherent cells (HepG2 and Caco-2) were routinely sub-cultured every 4 days when 95% confluent. Suspension cells (CEM and THP-1) were routinely sub-cultured when a density of 1×10^6 cells/ml was achieved. Cell count and viability was determined by Trypan Blue exclusion assay.
HepG2, Caco-2, THP-1, CEM and A-THP-1 cells were separately seeded at a density of 2.5×10^4/100 μl in their appropriate media into each well of a 96 well plate (Nunclon™, Denmark) and incubated for 24 hours at 37° C. and 5% CO2. Media was then aspirated and replaced with media containing 0.1, 1, 10, 100, 500 or 1000 μM, calculated from molarity of lopinavir (145 samples), of each lopinavir dispersion and incubated for a further 24 hours. The same procedure was followed for each individual excipient (23 samples) with concentrations range of 1 μM to 1M.
Prior to starting viability assays, all reagents were made fresh and in accordance to manufacturer's instructions and allowed to equilibrate to room temperature immediately before use. After 24 hours incubation, 96 well plates were removed from the incubator and the plate and its contents allowed too equilibrate to room temperature for approximately 30 minutes. After 30 minutes, 80 μl of media was aspirated from each individual well and 20 μl CellTiter-Glo® Reagent (Promega, UK) was added to the remaining media and cells. The contents were then mixed for 2 minutes on an orbital shaker to induce cell lysis. The plate was then further incubated at room temperature for 10 minutes to stabilise luminescent signal. Luminescence was then measured using a Tecan Genios plate reader (Tecan; Austria).
For orientation: ATP-based viability assays read luminescence as a measure of living cells.

Test in series [2]: as above
The series is classed as cell-based. The following applies: human, A-THP-1 (PMA-activated THP-1, macrophage like) cells, 70% lopinavir loaded, 24 hours incubation.
From the text: as §1, with “assay. […]” for “assay.”
HepG2, Caco-2, THP-1, CEM and A-THP-1 cells were separately seeded at a density of 2.5×10^4/100 μl in their appropriate media into each well of a 96 well plate (Nunclon™, Denmark) and incubated for 24 hours at 37° C. and 5% CO2. Media was then aspirated and replaced with media containing 0.1, 1, 10, 100, 500 or 1000 μM, calculated from molarity of lopinavir (145 samples), of each lopinavir dispersion and incubated for a further 24 hours. […]

The target of series [3] is recombinant HIV-1 protease (UniProt P04585). Kind of series: Inhibition of recombinant HIV-1 protease. The following applies: 70% loaded; cell-free assay; read-out: IC50 against recombinant HIV protease. The class given is biochemical.
Experimental: HIV-1 protease inhibition screening was conducted as per manufacturers' instructions (Roche Diagnostics GmbH; Germany). […] The entire sample (60 μl) was then transferred into microplate modules and incubated for a further 60 minutes at 37° C. The samples were then aspirated and washed ×5 with 250 μl of wash buffer. After the final aspiration, 200 μl of reconstituted anti-digoxigenin-peroxidase (Anti-DIG-POD) polyclonal antibody (200 mU/ml final concentration) was added to all wells and the plate returned to the incubator for a further 60 minutes at 37° C. The samples were aspirated and washed ×5 with wash buffer. Finally, after the final wash buffer was aspirated, 200 μl of ABTS substrate was added to each well and the plate incubated at room temperature for 15 minutes. Absorbance was then measured at 405 nm using FLUOstar Omega microplate reader (BMG Labtech, Uk).
In another series the test system is HIVIIIB. The series can be described thus: Inhibition of cultured HIV-IIIB in MT4 cells (MTT assay). The class given is cell-based, HIVIIIB in human T-cell line MT4. The conditions noted are these: Human immunodeficiency virus 1, 120 h, 70% loaded, 5 days, read-out: IC50 (Table 10, activity against cultured HIV virus). How it is done:
HIVIIIB and the human T-cell line, MT4, were supplied by the National Institute for Biological Standards and Control (NIBSC), the Centre for AIDS Reagents (CFAR: Hertfordshire, Uk). MT4 cells were grown and routinely maintained in RPMI-1640 (Sigma; Dorest, Uk) supplemented with 10% fetal bovine serum (FBS; Bio-Whittaker, Berkshire, Uk) at 37° C. and 5% CO2 and sub-cultured every 3 days. Cell counts and viability was determined by Trypan Blue exclusion using a disposable plastic haemocytometer (Labtech International Ltd, UK). HIVIIIB was propagated by passage through MT4 cells in RPMI-1640 and 10% FBS for 12 days and a subsequent multiplicity of infection (MOI) was determined by MTT assay.
MT4 cells were dispensed into 50 ml falcon tubes and centrifuged at 2000 rpm and 4° C. for 5 minutes. The supernantant was aspirated and the resulting pellet resuspended to a cell density of 1×10^5/ml in RPMI 1640 supplemented with 10% FBS and 1 ml of viral isolate (M.O.I 0.001). After further centrifugation for 5 minutes at 2000 rpm, the MT4/HIVIIIB pellet was incubated at 37° C. and 5% CO2 for 2 hours. […]
Following incubation for 5 days of MT4/HIVIIIB with nano formulated LOPINAVIR at 37° C. and 5% CO2. […] Absorbance was read at 570 nm on a plate reader (Tecan Magellan, Austria).

The term IC50 denotes the concentration at which inhibition is half-maximal.

As for `Cc1cccc(C)c1OCC(=O)N[C@@H](Cc1ccccc1)[C@@H](O)C[C@H](Cc1ccccc1)NC(=O)[C@H](C(C)C)N1CCCNC1=O` [Aqueous solution, lopinavir], the IC50 at 24 h came out at 100 µM in series [1] (CEM (lymphocyte) cells); 52.5 µM in series [1] (Caco-2 (intestinal) cells); 35.8 µM in series [1] (HepG2 (hepatic) cells); 28.3 µM in series [1] (THP-1 (monocyte) cells); 84.3 µM in series [2]. In addition, the IC50 was found to be 0.032 µM in series [3] and 0.056 µM with HIVIIIB.
